Experimental findings from patent US20260132140A1, “IMIDAZOLYL-AMINO-PYRAZINE-CARBONITRILS AS CHK-1 INHIBITORS” (BenevolentAI Bio Limited, priority 2022, published 2026) are described below.

The target of series [1] is human Chk2 kinase (Homo sapiens, UniProt O96017). Briefly: biochemical.
For series [2], the target named is T1, human Chk1 kinase (Homo sapiens, UniProt O14757).
T1 sequence (O14757 1-476): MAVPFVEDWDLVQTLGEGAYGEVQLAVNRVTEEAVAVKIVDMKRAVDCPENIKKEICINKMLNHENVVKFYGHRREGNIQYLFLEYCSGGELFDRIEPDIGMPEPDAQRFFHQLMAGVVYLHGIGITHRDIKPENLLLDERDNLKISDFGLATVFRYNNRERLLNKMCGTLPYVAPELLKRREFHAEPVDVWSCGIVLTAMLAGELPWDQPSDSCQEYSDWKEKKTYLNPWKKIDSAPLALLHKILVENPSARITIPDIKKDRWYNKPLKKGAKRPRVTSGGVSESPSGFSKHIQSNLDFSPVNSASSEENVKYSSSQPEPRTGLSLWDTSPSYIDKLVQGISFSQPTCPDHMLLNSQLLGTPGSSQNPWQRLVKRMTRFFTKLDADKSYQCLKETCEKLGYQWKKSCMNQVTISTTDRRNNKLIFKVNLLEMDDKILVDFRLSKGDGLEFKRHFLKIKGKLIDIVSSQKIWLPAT
In words: Human Chk1 HTRF (Homogeneous Time Resolved Fluorescence) enzyme assay. The settings on record: 1 nM Chk-1, 30 μM ATP. For orientation: Time-resolved FRET reads energy transfer from a long-lived donor to a nearby acceptor.

In series [3] the target is T2, RSK4 (Homo sapiens, UniProt Q9UK32).
T2 construct: purchased Eurofins (KinaseProfiler service)
T2 sequence (Q9UK32 whole entry): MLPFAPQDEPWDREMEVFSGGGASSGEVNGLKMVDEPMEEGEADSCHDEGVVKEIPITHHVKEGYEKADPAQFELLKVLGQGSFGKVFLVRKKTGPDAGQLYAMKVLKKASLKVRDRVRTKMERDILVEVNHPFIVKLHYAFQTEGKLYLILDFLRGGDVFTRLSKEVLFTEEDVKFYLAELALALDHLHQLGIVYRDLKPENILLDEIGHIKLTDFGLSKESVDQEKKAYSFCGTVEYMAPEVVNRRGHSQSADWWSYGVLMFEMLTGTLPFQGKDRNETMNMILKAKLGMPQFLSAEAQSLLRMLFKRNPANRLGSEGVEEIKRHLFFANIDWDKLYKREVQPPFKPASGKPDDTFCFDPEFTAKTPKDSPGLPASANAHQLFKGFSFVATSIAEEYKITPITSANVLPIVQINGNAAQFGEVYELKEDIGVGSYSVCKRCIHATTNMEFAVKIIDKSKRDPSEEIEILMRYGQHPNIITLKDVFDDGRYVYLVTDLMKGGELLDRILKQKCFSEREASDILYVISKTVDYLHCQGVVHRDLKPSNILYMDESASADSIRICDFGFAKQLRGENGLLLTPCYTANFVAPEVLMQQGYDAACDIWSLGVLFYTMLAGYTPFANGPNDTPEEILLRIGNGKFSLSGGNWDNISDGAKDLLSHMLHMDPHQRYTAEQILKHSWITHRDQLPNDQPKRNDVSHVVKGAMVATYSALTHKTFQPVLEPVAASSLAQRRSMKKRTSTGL
In words: RSK1-4 kinase assay (Eurofins KinaseProfiler, radiometric): RSK4. It counts as biochemical. The following applies: approximately ATP Km. From the text:
(§1) The radiometric kinase activity assays were run at approximately the ATP Km for each kinase and the IC50 data is shown in Table 24.

In series [4] the target is T3, BCRP (Homo sapiens, UniProt Q9UNQ0).
T3 sequence (Q9UNQ0 1-655): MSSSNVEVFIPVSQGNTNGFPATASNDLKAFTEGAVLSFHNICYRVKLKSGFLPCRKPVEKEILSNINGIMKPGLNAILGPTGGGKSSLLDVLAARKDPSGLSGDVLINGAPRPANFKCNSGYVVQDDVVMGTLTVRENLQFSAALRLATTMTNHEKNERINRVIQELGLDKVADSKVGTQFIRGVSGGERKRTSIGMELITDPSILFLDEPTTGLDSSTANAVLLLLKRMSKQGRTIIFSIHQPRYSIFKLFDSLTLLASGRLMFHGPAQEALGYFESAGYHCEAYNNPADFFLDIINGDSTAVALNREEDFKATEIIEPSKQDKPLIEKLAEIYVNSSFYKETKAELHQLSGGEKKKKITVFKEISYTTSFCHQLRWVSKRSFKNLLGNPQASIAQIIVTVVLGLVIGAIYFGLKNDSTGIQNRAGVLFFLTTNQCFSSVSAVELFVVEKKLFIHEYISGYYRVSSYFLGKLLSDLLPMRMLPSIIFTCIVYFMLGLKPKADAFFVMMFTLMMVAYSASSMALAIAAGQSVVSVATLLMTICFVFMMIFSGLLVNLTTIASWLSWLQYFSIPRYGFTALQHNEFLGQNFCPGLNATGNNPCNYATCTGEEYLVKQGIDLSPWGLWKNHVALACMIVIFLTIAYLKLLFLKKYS
Briefly: in vitro. The following applies: dog, pH 7.4.

Series [5] can be described thus: in vitro. The settings on record: dog, MDCK, pH 7.4.
In series [6] the target is T4, RSK2 (Homo sapiens, UniProt P51812).
T4 construct: purchased Eurofins (KinaseProfiler service)
T4 sequence (P51812 whole entry): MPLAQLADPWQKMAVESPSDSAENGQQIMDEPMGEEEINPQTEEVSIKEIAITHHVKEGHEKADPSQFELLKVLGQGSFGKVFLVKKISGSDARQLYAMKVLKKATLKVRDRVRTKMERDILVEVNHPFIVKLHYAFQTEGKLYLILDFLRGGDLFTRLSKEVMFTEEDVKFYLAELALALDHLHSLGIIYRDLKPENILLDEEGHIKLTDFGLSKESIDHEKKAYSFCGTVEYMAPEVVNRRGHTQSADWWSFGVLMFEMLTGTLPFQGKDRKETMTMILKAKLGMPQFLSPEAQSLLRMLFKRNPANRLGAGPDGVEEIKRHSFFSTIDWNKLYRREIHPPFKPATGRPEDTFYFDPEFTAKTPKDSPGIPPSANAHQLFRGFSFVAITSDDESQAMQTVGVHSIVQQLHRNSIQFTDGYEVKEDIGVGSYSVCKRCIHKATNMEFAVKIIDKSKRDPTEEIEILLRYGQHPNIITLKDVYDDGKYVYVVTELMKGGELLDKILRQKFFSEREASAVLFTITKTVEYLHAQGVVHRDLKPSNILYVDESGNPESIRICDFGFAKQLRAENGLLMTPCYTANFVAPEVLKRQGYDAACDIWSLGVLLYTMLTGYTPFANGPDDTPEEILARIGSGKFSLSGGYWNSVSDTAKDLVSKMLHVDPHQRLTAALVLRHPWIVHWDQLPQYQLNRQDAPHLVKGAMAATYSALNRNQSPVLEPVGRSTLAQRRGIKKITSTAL
In words: RSK1-4 kinase assay (Eurofins KinaseProfiler, radiometric): RSK2. It counts as biochemical. The following applies: approximately ATP Km.
Source text: as §1

Series [7] addresses P-glycoprotein (P-gp, MDR1) (Homo sapiens, UniProt P08183). In words: in vitro. The settings on record: dog, MDCK-MDR1, pH 7.4.
In series [8] the target is T5, RSK1 (Homo sapiens, UniProt Q15418).
T5 construct: purchased Eurofins (KinaseProfiler service)
T5 sequence (Q15418 whole entry): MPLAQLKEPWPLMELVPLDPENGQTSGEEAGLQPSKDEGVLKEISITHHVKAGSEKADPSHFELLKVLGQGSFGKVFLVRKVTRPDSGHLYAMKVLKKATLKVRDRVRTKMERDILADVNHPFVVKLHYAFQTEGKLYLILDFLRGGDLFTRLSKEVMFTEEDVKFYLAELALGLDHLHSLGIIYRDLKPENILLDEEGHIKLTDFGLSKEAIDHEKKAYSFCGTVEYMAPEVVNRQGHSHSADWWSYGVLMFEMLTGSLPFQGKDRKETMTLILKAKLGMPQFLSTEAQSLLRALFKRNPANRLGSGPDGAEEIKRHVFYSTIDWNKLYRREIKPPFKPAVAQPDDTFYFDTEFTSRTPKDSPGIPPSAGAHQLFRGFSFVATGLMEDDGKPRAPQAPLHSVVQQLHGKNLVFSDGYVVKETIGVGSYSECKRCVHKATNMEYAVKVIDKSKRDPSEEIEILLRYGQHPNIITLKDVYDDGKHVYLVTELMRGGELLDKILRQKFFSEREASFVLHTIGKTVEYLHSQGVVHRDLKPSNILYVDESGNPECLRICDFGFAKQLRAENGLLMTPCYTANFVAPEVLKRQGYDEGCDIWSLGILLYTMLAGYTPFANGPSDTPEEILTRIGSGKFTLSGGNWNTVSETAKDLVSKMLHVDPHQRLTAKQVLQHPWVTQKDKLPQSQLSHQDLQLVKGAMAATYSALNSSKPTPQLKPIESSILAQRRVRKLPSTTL
In words: RSK1-4 kinase assay (Eurofins KinaseProfiler, radiometric): RSK1. The following applies: approximately ATP Km. It counts as biochemical.
Source text: as §1

For series [9], the target named is T6, RSK3 (Homo sapiens, UniProt Q15349).
T6 construct: purchased Eurofins (KinaseProfiler service)
T6 sequence (Q15349 whole entry): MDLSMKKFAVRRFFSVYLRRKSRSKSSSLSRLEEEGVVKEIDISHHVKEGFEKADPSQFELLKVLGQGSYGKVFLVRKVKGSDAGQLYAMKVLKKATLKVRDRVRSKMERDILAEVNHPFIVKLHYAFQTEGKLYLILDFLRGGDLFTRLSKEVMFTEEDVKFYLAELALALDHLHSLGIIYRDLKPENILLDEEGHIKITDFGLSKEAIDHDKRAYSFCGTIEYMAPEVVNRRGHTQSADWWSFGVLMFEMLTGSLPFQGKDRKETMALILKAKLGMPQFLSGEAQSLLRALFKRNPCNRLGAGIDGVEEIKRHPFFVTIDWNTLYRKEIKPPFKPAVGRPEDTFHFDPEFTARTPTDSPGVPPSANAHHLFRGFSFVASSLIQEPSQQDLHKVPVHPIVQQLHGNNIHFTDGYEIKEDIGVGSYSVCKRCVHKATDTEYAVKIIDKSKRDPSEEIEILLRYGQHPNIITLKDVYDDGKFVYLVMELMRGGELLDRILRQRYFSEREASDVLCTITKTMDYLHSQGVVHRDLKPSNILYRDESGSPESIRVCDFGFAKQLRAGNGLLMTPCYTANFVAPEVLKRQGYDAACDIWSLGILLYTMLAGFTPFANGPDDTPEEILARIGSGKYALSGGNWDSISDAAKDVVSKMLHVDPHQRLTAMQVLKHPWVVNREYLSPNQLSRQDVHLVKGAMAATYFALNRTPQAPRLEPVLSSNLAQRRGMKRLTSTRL
Briefly: RSK1-4 kinase assay (Eurofins KinaseProfiler, radiometric): RSK3. The settings on record: approximately ATP Km. It is filed as biochemical.
Source text: as §1

The subject of series [10] is GBM LN18 cells. Briefly: In vitro cell viability assay (Cell Titre Glo, 72 hours). It counts as cell-based. The settings on record: Homo sapiens, LN-18, read-out: LN18 pIC50 (converted). The method, boiled down: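 LN18 glioblastoma cells were exposed to compound for 72 h in a 10-point concentration series up to 10 μM. Viability was read as cellular ATP by CellTiter-Glo luminescence, and % inhibition was calculated against the vehicle and inhibited control wells on each plate.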

The nature of series [11]: Determination of CNS penetration in vivo, unbound brain to plasma ratio (Kpuu). The following applies: male, Sprague Dawley, rat, iv, 1 mg/kg.
Series [12] relates to pChk1(Ser296) in SW620 cells. Briefly: pChk1(Ser296) sandwich ELISA, cell-based on-target kinase activity. The settings on record: Homo sapiens, SW-620, neocarzinostatin 7.5 μM, 2 hours, read-out: SW620 pIC50 (converted). How it is done: ELISA assays were performed as per the manufacturer's protocol. […] Selected compounds of the invention were tested as a 8-point concentration response up to a maximum concentration of either 1 μM, 3 μM or 10 μM. The percent (%) effect i.e. inhibition at each concentration of compound was calculated based on, and relative to, the amount of inhibition produced in the vehicle control and inhibited control wells contained within each plate.
In general terms: ELISA stands for enzyme-linked immunosorbent assay.

The target in series [13] is T1, human Chk1 kinase. In words: biochemical.
The subject of series [14] is 373 human wild-type kinases. In words: Kinome selectivity, Eurofins KinaseProfiler kinase screen. It counts as biochemical. The settings on record: panel of 373 human wild-type kinases, approximately ATP Km, top concentration 10 μM. From the text:
The radiometric kinase activity assays were run at approximately the ATP Km for each kinase.

pIC50: −log10 of the molar value.

By pIC50 is commonly meant −log10 of the IC50, conventionally taken in molar units. Low values mean a large IC50, high ones a small IC50. What is called efflux ratio is the permeability from basolateral to apical divided by that in the opposite direction, in the common usage. As usually defined, the Papp A→B is how fast a substance crosses the layer from the apical side. Lower therefore signals slow passage.

Sequence of human Chk2 kinase (O96017 whole entry): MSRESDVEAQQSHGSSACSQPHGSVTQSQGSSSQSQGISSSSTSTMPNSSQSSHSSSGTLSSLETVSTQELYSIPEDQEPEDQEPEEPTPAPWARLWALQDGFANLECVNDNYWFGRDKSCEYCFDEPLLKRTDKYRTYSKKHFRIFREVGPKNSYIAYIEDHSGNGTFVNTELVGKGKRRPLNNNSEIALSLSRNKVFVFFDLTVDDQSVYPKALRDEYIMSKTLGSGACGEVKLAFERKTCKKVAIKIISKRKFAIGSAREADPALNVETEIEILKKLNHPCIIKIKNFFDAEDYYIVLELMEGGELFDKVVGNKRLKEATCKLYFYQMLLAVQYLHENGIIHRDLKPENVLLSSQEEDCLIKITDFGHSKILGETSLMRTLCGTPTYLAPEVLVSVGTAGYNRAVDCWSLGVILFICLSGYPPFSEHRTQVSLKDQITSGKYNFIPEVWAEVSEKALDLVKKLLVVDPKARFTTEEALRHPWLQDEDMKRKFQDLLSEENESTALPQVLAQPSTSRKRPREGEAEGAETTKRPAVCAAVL
Sequence of P-glycoprotein (P-gp, MDR1) (P08183 whole entry): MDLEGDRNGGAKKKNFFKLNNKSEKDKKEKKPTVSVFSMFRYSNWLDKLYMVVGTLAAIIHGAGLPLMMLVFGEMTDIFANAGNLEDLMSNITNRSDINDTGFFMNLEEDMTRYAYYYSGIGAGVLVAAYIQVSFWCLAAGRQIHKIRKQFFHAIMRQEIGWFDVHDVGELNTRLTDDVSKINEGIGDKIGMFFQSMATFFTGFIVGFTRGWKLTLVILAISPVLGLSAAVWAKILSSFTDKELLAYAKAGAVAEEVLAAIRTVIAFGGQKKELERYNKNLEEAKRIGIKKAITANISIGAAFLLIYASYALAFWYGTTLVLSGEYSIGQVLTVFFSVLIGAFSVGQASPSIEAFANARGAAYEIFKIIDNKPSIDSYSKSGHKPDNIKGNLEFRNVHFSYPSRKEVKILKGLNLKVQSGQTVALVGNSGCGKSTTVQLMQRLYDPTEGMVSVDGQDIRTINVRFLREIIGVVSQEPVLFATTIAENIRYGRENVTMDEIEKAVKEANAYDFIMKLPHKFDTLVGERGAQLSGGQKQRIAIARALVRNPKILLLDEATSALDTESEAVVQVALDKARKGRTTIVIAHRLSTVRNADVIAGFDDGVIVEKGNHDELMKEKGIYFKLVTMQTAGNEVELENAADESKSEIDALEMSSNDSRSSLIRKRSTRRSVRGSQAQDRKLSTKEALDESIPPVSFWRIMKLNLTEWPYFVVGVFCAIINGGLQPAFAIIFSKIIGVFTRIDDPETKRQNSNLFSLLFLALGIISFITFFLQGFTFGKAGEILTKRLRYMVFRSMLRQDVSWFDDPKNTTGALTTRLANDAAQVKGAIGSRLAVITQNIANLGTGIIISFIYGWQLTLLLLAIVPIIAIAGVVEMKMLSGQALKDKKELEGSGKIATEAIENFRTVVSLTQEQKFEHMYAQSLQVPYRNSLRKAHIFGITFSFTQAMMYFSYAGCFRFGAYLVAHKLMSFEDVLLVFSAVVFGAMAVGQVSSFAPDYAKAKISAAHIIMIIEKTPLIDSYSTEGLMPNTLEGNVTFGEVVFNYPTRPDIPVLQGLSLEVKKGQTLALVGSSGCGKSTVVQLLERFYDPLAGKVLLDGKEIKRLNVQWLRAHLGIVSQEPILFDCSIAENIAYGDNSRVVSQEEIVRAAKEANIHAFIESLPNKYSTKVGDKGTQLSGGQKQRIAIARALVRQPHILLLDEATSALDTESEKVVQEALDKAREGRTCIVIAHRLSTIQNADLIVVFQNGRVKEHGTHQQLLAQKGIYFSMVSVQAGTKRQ

For `CN(CCO)C1CCN(c2cccc(-n3cnc(Nc4cnc(C#N)cn4)c3)c2)C1` (single isomer, unassigned) [Example 110, 5-((1-(3-(3-((2-Hydroxyethyl)(methyl)amino)pyrrolidin-1-yl)phenyl)-1H-imidazol-4-yl)amino)pyrazine-2-carbonitrile], the pIC50 in series [1] was 4.00 to 5.00. The “Chk1 pIC50” value in [2] was “D (D: 7.5-8.0)”.
The matching figures for `CC1(C)CN(C2CCN(c3ccc(-n4cnc(Nc5cnc(C#N)cn5)c4)cc3)C2)C1` (single isomer, unassigned) [Example 124, 5-((1-(4-(3-(3,3-Dimethylazetidin-1-yl)pyrrolidin-1-yl)phenyl)-1H-imidazol-4-yl)amino)pyrazine-2-carbonitrile]: 5.00 to 6.00 and “D (D: 7.5-8.0)”.
In the same order, the values of `CC1CN(C2CCN(c3ccc(-n4cnc(Nc5cnc(C#N)cn5)c4)cc3)C2)C1` (single isomer, unassigned) [Example 126, 5-((1-(4-(3-(3-Methylazetidin-1-yl)pyrrolidin-1-yl)phenyl)-1H-imidazol-4-yl)amino)pyrazine-2-carbonitrile] are less than 4.00 and “D (D: 7.5-8.0)”.
As for `COc1cc(C2(F)CCN(C)CC2)ccc1-c1cc(Nc2cnc(C#N)cn2)n[nH]1` [Comparator Ex. 4, 5-((5-(4-(4-Fluoro-1-methylpiperidin-4-yl)-2-methoxyphenyl)-1H-pyrazol-3-yl)amino)pyrazine-2-carbonitrile, reference compound], the negative-log IC50 (pIC50) in series [3] was 7.24; in series [6] it was 7.23; in [8], 6.48; in series [9], 7.46. Besides, the efflux ratio at 60 min, 1 μM in series [4] was determined as 12; in series [7], 16. In addition, in series [5], the apparent permeability from apical to basolateral (Papp A→B) at 60 min, 1 μM is 19 ×10⁻⁶ cm/s.
Regarding `CN(C)[C@@H]1CCN(c2ccc(-n3cnc(Nc4cnc(C#N)cn4)c3)nc2)C1` [Example 50, (R)-5-((1-(5-(3-(Dimethylamino)pyrrolidin-1-yl)pyridin-2-yl)-1H-imidazol-4-yl)amino)pyrazine-2-carbonitrile], the pIC50 was 5.50 in [3], 5.18 in series [6], 5.35 in series [8] and 5.99 in [9]. Moreover, the IC50 in [10] and in series [12] was less than 1000 nM each time. For the same molecule, the Kp uu at 0.25 h in series [11] was found to be 0.5.
As for `C[C@@H]1C[C@@H](N2CCC2)CN1c1ccc(-n2cnc(Nc3cnc(C#N)cn3)c2)cc1` [Example 98, 5-((1-(4-((2R,4R)-4-(Azetidin-1-yl)-2-methylpyrrolidin-1-yl)phenyl)-1H-imidazol-4-yl)amino)pyrazine-2-carbonitrile], the negative-log IC50 (pIC50) in series [3] was 5.61; in [6] it was 6.10; in series [8], 5.45; in [9], 6.19. The IC50 in series [10] and in series [12] was less than 1000 nM in each case. Besides, in series [11], the Kp uu at 0.25 h amounted to 0.8.
As to `CN1CCN(c2ccc(-n3cnc(Nc4cnc(C#N)cn4)c3)cc2)CC1` [Example 143, 5-((1-(4-(4-Methylpiperazin-1-yl)phenyl)-1H-imidazol-4-yl)amino)pyrazine-2-carbonitrile], the pIC50 in series [3] was less than 5.00; in [1], 4.00 to 5.00; in series [13], 7.50 to 8.00; in [6], 5.52; in series [8], 5.02; in series [9], 5.68. Also, the “Number of 372 kinases inhibited relative to Chk1 IC50 Within 10-fold” value in [14] was 3. For the same molecule, the “Number of 372 kinases inhibited relative to Chk1 IC50 Within 100-fold” value in series [14] is recorded as 10. For the same molecule, the Kp uu at 0.25 h in series [11] came to 0.4.
Take `N#Cc1cnc(Nc2cn(-c3ccc(N4CCN(CCF)CC4)cc3)cn2)cn1` [Example 183, 5-((1-(4-(4-(2-Fluoroethyl)piperazin-1-yl)phenyl)-1H-imidazol-4-yl)amino)pyrazine-2-carbonitrile]: the negative logarithm of the IC50 (pIC50) in series [1] is 4.00 to 5.00; in [13] it was 7.00 to 7.50. Besides, the efflux ratio at 60 min, 1 μM came out at 1.4 in series [4] and 0.7 in series [7]. In series [5], this molecule gave a Papp A→B at 60 min, 1 μM of 84 ×10⁻⁶ cm/s.
In the same order, the values of `N#Cc1cnc(Nc2cn(-c3ccc(N4CCN(CCC(F)(F)F)CC4)cc3)cn2)cn1` [Example 184, 5-((1-(4-(4-(3,3,3-Trifluoropropyl)piperazin-1-yl)phenyl)-1H-imidazol-4-yl)amino)pyrazine-2-carbonitrile] are less than 4.00, 6.50 to 7.00, 1.1, 0.9 and 43 ×10⁻⁶ cm/s.
